Data set [1] in a line: Dissolution time of acid solubilizers in purified water (FBRM). The class given is physicochemical. The following applies: 200 mg acid in 90 mL purified water, 250 rpm. As for the experimental part:
The results described in Table 1 were performed by adding 200 mg of the acid to 90 mL purified water using a Mettler Toledo mixing chamber held at the specified temperature with an upward pumping four blade impeller at 250 rpm. The disappearance of particles undergoing dissolution was monitored by focused-beam reflectance measurement (FBRM). Data was analyzed by reviewing individual 2 second measurement trends as well as trends averaged over 10 and 30 seconds.

A short description of data set [2]: Steady-state vs single dose exposure in various other clinical trials. Format: in vivo, human. As to conditions: different formulations.
The conditions of data set [3]: humans; efavirenz as inducer of CYP3A4; cited from earlier work.
A short description of data set [4]: Disintegration behavior of tablets in approximately 250 mL water. As to conditions: single tablet in approximately 250 mL water. Format: physicochemical.

On to `O=C(O)/C=C/C(=O)O` [Fumaric, Fumaric Acid], for which the results for the Dissolution time in data set [1] (25° C.) and in data set [1] (37° C.) were 312 s and 152 s, respectively.

For `O=C(O)/C=C\C(=O)O` [Maleic, Maleic Acid], the Dissolution time in data set [1] (25° C.) was 4 s; in data set [1] (37° C.), under 2 s.

Regarding `CCCCOCCOc1ccc(-c2ccc3c(c2)/C=C(/C(=O)Nc2ccc([S@@+]([O-])Cc4cncn4CCC)cc2)CCCN3CC(C)C)cc1` [cenicriviroc, (S,E)-8-(4-(2-Butoxyethoxy)phenyl)-1-(2-methylpropyl)-N-(4-(((1-propyl-1H-imidazol-5-yl)methyl)sulfinyl)phenyl)-1,2,3,4-tetrahydrobenzo[b]azocine-5-carboxamide], the “Steady-state exposure level (AUC, day 10) relative to single dose exposure” value in data set [2] is “approximately 1.5 fold”. In addition, the “Decrease of cenicriviroc plasma concentration by efavirenz” value in data set [3] was “approximately 2 fold”.

For the compound `Nc1ccn([C@@H]2CS[C@H](CO)O2)c(=O)n1` [lamivudine], in data set [4], the “Disintegration Observations (mode)” value is on record as “Rapid” and the Disintegration time result was “tion <30 seconds”.

The values above are taken from US20160081985A1, “CENICRIVIROC COMPOSITIONS AND METHODS OF MAKING AND USING THE SAME” (Tobira Therapeutics, Inc., priority 2013, published 2016).
